For data set [1], the system named is six human cancer cell lines (prostate, glioma, pancreas, colon, lung, and breast cancers). Put plainly: MTT test of overall cell growth, mean of six human cancer cell lines. In kind it is cell-based. The conditions noted are these: 72 hours of incubation, mean of the six human cancer cell lines, range of molar concentrations giving 50% inhibition of overall tumor cell growth. As for the experimental part:
MTT tests were performed in order to rapidly, i.e. within 5 days, measure the effect of compounds of this invention on the overall cell growth. The test measured the number of metabolically active living cells that were able to transform the yellow product 3-(4,5-dimethylthiazol-2-yl)-2,5-diphenyl tetrazolium bromide (herein referred as MTT) into the blue product formazan dye by mitochondrial reduction. The amount of formazan obtained at the end of the experiment, measured by means of a spectrophotometer, is directly proportional to the number of living cells.
Six human cancer cell lines described in table 7 were used in the following MTT tests. These cancer cell lines cover six histological cancer types, being prostate, glioma, pancreas, colon, lung, and breast cancers.
To perform the assay, cells were allowed to grow in 96-well micro-wells with a flat bottom with an amount of 100 μl of cell suspension per well with 1,000 to 4,000 cells/well depending on the cell type used. Each cell line was seeded in a well known MEM 10% serum culture medium.
The detailed experimental procedure was the following: after a 24-hour period of incubation at 37° C., the culture medium was replaced by 100 μl of fresh medium in which the tested compound was previously dissolved, at the following molar concentrations: 10^−9 M, 5.10^−9 M, […], 10^−7 M, 5.10^−7 M, 10^−6 M, 5.10^−6 M, and […]. Each experiment was repeated 6 times.
After 72 hours of incubation at 37° C. with (experimental conditions) or without (control condition) the compound to be tested, the medium was replaced by 100 μl MTT dissolved in RPMI (1640 without phenol red) at a concentration of 1 mg/ml. The micro-wells were subsequently incubated during 3 hours at 37° C. and centrifuged at 400 g during 10 minutes. MTT was removed and formazan crystals formed were dissolved in 100 μl DMSO. The micro-wells were shaken for 5 minutes and read on a spectrophotometer at wavelengths of 570 nm (maximum formazan absorbance) and 630 nm (background noise).
For each experimental condition, the mean optical density was calculated, allowing the determination of the percentage of remaining living cells in comparison to the control.
(Tetrazolium dyes change colour on reduction, which living cells bring about.)

The nature of a further data set: in vivo. The conditions noted are these: mouse, maximum tolerated dose, single intravenous dose, healthy mice, survival and weights recorded up to 14 days. As for the experimental part: The maximum tolerated dose (herein after MTD) is defined as the maximum amount of a given drug which can be administered acutely (i.e. in one intraperitoneal, intravenous, subcutaneous or oral single dose) to healthy animals, i.e. animals not grafted with tumors. In this assay, compounds were administered intravenously. The survival times and weights of the animals were recorded up to 14 days post injection. Five different doses of each compound were used for the determination of the MTD index. Each experimental group comprised 3 mice for the determination of the MTD (expressed in mg/kg).

The subject of data set [2] is PC3 (apoptosis-resistant cancer cells). Description: Cellular imaging (computer-assisted phase-contrast microscopy): cell migration and global growth ratio. The data set is classed as cell-based, human. The conditions noted are these: PC3, 100 nM; for Ratio GGRtreated cells/GGRcontrol cells: 72 h, global growth ratio; for effect on cell migration: filmed for 72 h. On the procedure: (§1) A cellular imaging approach (Debeir et al., Cytometry 60:29-40, 2004; Debeir et al., IEEE Trans Med Imaging 24:697-711, 2005) was used to investigate whether the isocarbostyril alkaloid derivatives of the present invention were able to impair cell proliferation and cell migration in apoptosis-sensitive (U-373MG—see Table 7) as well as apoptosis-resistant (PC3—see Table 7) cancer cells. Cellular imaging relied on the use of computer-assisted phase-contrast microscopy making possible to film the behavior of living cells in culture dishes for several days.
(§2) Cells were seeded in 25-cm^2 at a low density, treated or not with the compounds of the present invention (at a concentration of 100 nM) and filmed thereafter for a period of 72 h. The analysis of the films was performed by two operators, working independently. The effect on cell migration was characterized as +++ (high effect: cell migration of most cells is drastically altered for most of the duration of the film), ++ (medium effect: compound altering cell migration of an important proportion of the cells although less drastically), + (low effect: compound affecting cell migration of a small part of the cell population, or only for a limited part of the 72 h incubation), − (no effect: as compared to the control conditions, no difference is observed). The effect on the overall growth was measured by counting the number of cells on the first (Oh) and the last image (72 h) of each film. The global growth ratio (GGR) was then deduced by dividing the number of cells on the last image by the number of cells on the first image. The ratio GGRtreated cells/GGRcontrol cells, was further calculated thereby obtaining a value that describes the effect of compounds of the present invention on the overall cell growth.

Data set [3] relates to U-373MG (apoptosis-sensitive cancer cells). The data set is described as above. The conditions noted are these: 100 nM; for Ratio GGRtreated cells/GGRcontrol cells: 72 h, global growth ratio; for effect on cell migration: filmed for 72 h. In kind it is cell-based, human. As for the experimental part:
as §1, §2

pIC50: −log10 of the molar value.

The term pIC50 denotes the negative decadic logarithm of the IC50, by convention in mol/L. High values mean a low IC50, low ones a high IC50. In general, MTD refers to the highest dose tested that stayed within the study's limit of toxicity. Low values mean a narrow tolerated range, high ones a wide tolerated range.

In data set [1], `O=C1N[C@@H]2C(=C[C@H](O)[C@@H](O)[C@H]2OS(=O)(=O)[O-])c2cc3c(c(O)c21)OCO3.[Na+]` [Compound 1, (2S,3R,4S,4aR)-2,3,7-trihydroxy-(1,3)dioxolo(4,5-j)-6-oxo-2,3,4,4a,5,6-hexahydrophenanthridin-4-yl sodium sulfate] showed a pIC50 of 5.30 to 6.00. The compound further returned an MTD at 14 days in the data set “in vivo” greater than 80 mg/kg.
In data set [1], `CCOC(=O)COc1c2c(cc3c1C(=O)N[C@@H]1C3=C[C@H](OC(C)=O)C(OC(C)=O)[C@H]1OC(C)=O)OCO2` (stereo partly drawn) [Compound 2, ethyl ({(2S,3R,4S,4aR)-2,3,4-tris[(methylcarbonyl)oxy]-(1,3)dioxolo(4,5-j)-6-oxo-2,3,4,4a,5,6-hexahydrophenanthridin--7-yl}oxy)acetate] had a pIC50 of less than 5.00.
The same measure, in the same setting: the same measure for `CCOC(=O)COc1c2c(cc3c1C(=O)N(CC(=O)OCC)[C@@H]1C3=C[C@H](OC(C)=O)C(OC(C)=O)[C@H]1OC(C)=O)OCO2` (stereo partly drawn) [Compound 3, ethyl [(2S,3R,4S,4aR)-2,3,4-tris[(methylcarbonyl)oxy]-(1,3)dioxolo(4,5-j)-7-(2-ethoxy-2-oxoethoxy)-6-oxo-2,3,4,4a,5,6-hexahydrophenanthridin--5(3H)-yl]acetate]: less than 5.00.
Compound `CC(=O)O[C@@H]1[C@H](OC(C)=O)[C@@H](OC(C)=O)C=C2c3cc4c(c(O)c3C(=S)N[C@H]21)OCO4` [Compound 4, (2S,3R,4S,4aR)-7-hydroxy-(1,3)dioxolo(4,5-j)-6-thioxo-2,3,4,4a,5,6-hexahydrophenanthridin--2,3,4-triyl triacetate] gave a pIC50 in data set [1] of 5.30 to 6.00. Moreover, the MTD at 14 days in the data set “in vivo” turned out to be 40 mg/kg.
Compound `COC(=O)COc1c2c(cc3c1C(=O)N[C@@H]1C3=C[C@H](O)[C@@H](O)[C@H]1O)OCO2` [Compound 5, methyl {[(2S,3R,4S,4aR)-2,3,4-trihydroxy-(1,3)dioxolo(4,5-j)-6-oxo-3,4,4a,5-tetrahydrophenanthridin-6(2H)-7-yl]oxy}acetate] showed a pIC50 in data set [1] of 5.00 to 5.30.
In data set [1], `O=C(O)COc1c2c(cc3c1C(=O)N[C@@H]1C3=C[C@H](O)[C@@H](O)[C@H]1O)OCO2` [Compound 6, {[(2S,3R,4S,4aR)-2,3,4-trihydroxy-(1,3)dioxolo(4,5-j)-6-oxo-3,4,4a,5-tetrahydrophenanthridin-6(2H)-7-yl]oxy}acetic acid] gave a negative-log IC50 (pIC50) of 5.00 to 5.30.
For the compound `CC(=O)O[C@@H]1[C@H](OC(C)=O)[C@@H](OC(C)=O)C=C2c3cc4c(c(OCc5ccc6ccccc6c5)c3C(=O)N[C@H]21)OCO4` [Compound 7, (2S,3R,4S,4aR)-7-[(2-naphthylmethoxy]-(1,3)dioxolo(4,5-j)-6-oxo-2,3,4,4a,5,6-hexahydrophenanthridin-2,3,4-triyl triacetate], the pIC50 in data set [1] was 5.30 to 6.00.
`O=C1N[C@@H]2C(=C[C@H](O)[C@@H](O)[C@H]2O)c2cc3c(c(OCc4ccc5ccccc5c4)c21)OCO3` [Compound 8] showed a pIC50 in data set [1] of 5.30 to 6.00. Further, the MTD at 14 days in “in vivo” was greater than 80 mg/kg.
`O=C1c2c(cc3c(c2OCc2ccccc2)OCO3)C2=C[C@H](O)[C@@H](O)[C@@H](O)[C@@H]2N1Cc1ccccc1` [Compound 9, (2S,3R,4S,4aR)-2,3,4-trihydroxy-7-[benzyloxy]-5-benzyl-(1,3)dioxolo(4,5-j)-3,4,4a,5-tetrahydrophenanthridin-6(2H)-one] showed a negative logarithm of the IC50 (pIC50) in data set [1] of less than 5.00. The compound further displayed an MTD at 14 days in the data set “in vivo” of 40 mg/kg.
In data set [1], `CC(=O)Oc1c2c(cc3c1C(=O)N[C@@H]1C3=C[C@H](OC(C)=O)[C@@H](O)[C@H]1O)OCO2` [Compound 10, (2S,3S,4S,4aR)-3,4-dihydroxy-(1,3)dioxolo(4,5-j)-6-oxo-2,3,4,4a,5,6-hexahydrophenanthridin--2,7-diyl diacetate] showed a negative logarithm of the IC50 (pIC50) of 6.30 to 7.00. The MTD at 14 days in “in vivo” is greater than 80 mg/kg. Besides, the entries for the “Ratio GGRtreated cells/GGRcontrol cells” value in data set [2] and in data set [3] were 1.38 and 1.06, respectively. Further, the “effect on cell migration” value in data set [2] is “+”; in data set [3] it was “−”.
For `CC(=O)O[C@H]1C=C2c3cc4c(c(O)c3C(=O)N[C@H]2[C@H](O)[C@@H]1O)OCO4` [Compound 11, (2S,3S,4S,4aR)-3,4,7-trihydroxy-(1,3)dioxolo(4,5-j)-6-oxo-2,3,4,4a,5,6-hexahydrophenanthridin--2-yl acetate], the pIC50 in data set [1] is 6.30 to 7.00. This compound also yielded an MTD at 14 days in the data set “in vivo” greater than 80 mg/kg. Also, in data set [2], the “Ratio GGRtreated cells/GGRcontrol cells” value worked out at 0.40 and the “effect on cell migration” value is “+++”. Also, in data set [3], the “Ratio GGRtreated cells/GGRcontrol cells” value was 0.42 and the “effect on cell migration” value is on record as “++”.
`O=C(O[C@H]1C=C2c3cc4c(c(O)c3C(=O)N[C@H]2[C@H](O)[C@@H]1O)OCO4)c1ccccc1` [Compound 13, (2S,3S,4S,4aR)-3,4,7-trihydroxy-(1,3)dioxolo(4,5-j)-6-oxo-2,3,4,4a,5,6-hexahydrophenanthridin--2-yl benzoate] gave a pIC50 in data set [1] of 7.30 to 8.00. Besides, the MTD at 14 days in “in vivo” was determined as 10 mg/kg. For the same compound, in data set [2], the “Ratio GGRtreated cells/GGRcontrol cells” value is 0.31 and the “effect on cell migration” value is listed as “+++”. Moreover, in data set [3], the “Ratio GGRtreated cells/GGRcontrol cells” value came to 0.45 and the “effect on cell migration” value is on record as “++”.
In turn, `CCC(=O)O[C@H]1C=C2c3cc4c(c(O)c3C(=O)N[C@H]2[C@H](O)[C@@H]1O)OCO4` [Compound 19, (2S,3S,4S,4aR)-3,4,7-trihydroxy-(1,3)dioxolo(4,5-j)-6-oxo-2,3,4,4a,5,6-hexahydrophenanthridin-2-yl propionate] had a pIC50 in data set [1] of 7.30 to 8.00. For the same compound, the MTD at 14 days in the data set “in vivo” was determined as 40 mg/kg.
For the compound `CC(C)C(=O)O[C@H]1C=C2c3cc4c(c(O)c3C(=O)N[C@H]2[C@H](O)[C@@H]1O)OCO4` [Compound 20, (2S,3S,4S,4aR)-3,4,7-trihydroxy-(1,3)dioxolo(4,5-j)-6-oxo-2,3,4,4a,5,6-hexahydrophenanthridin-2-yl 2-methylpropanoate], the pIC50 in data set [1] was 7.30 to 8.00. For the same compound, the MTD at 14 days in the data set “in vivo” is 40 mg/kg.
`O=C1N[C@@H]2C(=C[C@H](O)[C@@H](O)[C@H]2O)c2cc3c(c(O)c21)OCO3` [narciclasine, reference compound] gave a pIC50 in data set [1] of 7.30 to 8.00.
